Experimental data: patent US8455437B2, “Method to predict and prevent oxygen-induced inflammatory tissue injury” (The United States of America, as Represented by the …, priority 2005, dated 2013)

How the values were obtained:
[1] = system: oxygenated mice with inflammatory lung injury; conditions: mouse, in vivo
endotoxin-treated mice = assay: Lung injury in endotoxin-treated mice; format: in vivo
A2AR gene deficient mice = assay: Selectivity control: lung inflammation in A2AR gene deficient mice; format: in vivo; conditions: dosing regimen used to treat WT mice (data not shown)
Text: Thus, the exogenously added selective, synthetic A2AR agonist compensated for the loss of endogenously formed adenosine in oxygenated and inflamed lungs thereby decreasing lung injury and rescuing mice from death.

[2] = system: mice with acute inflammatory lung injury; conditions: mouse, in vivo
[3] = i.t. injections, endotoxin-treated mice (data not shown)

| SMILES | number of deaths (oxygenation-induced death) [1] | pulmonary PMN sequestration (endotoxin-treated mice; histological examination) | lung tissue damage as assessed by lung injury score (endotoxin-treated mice; histological examination (not shown)) | accumulation of PMN (endotoxin-treated mice; [3]) | lung gas exchange (endotoxin-treated mice; [3]) | lung injury (endotoxin-treated mice; [3]) | lung vascular permeability (endotoxin-treated mice; [3]) | production of reactive oxygen metabolites (endotoxin-treated mice; [3]) | lung inflammation in A2AR gene deficient mice (A2AR gene deficient mice) | BAL fluid protein [2] | alveolo-capillary permeability (protein recovered by broncho-alveolar lavage) [2] | arterial pO2 after return to normal atmosphere [2] | death in short-term assays [2] | deaths of mice with inflamed lungs versus 21% ambient oxygen [2] | inflammatory lung injury (exudate protein in alveolar spaces, arterial blood oxygen tension) [2] | mice that died during 15 min equilibration period in normal atmosphere [2] |
| --- | --- | --- | --- | --- | --- | --- | --- | --- | --- | --- | --- | --- | --- | --- | --- | --- |
| CCNC(=O)[C@H]1O[C@@H](n2cnc3c(N)nc(NCCc4ccc(CCC(=O)O)cc4)nc32)[C@H](O)[C@@H]1O [CGS21680] | dramatically reduced | inhibition | fourfold decrease | significantly decreased | improved | significantly inhibited | less pronounced increases | reduced | did not affect | – | – | – | – | – | – | – |
| O=O [oxygen] | – | – | – | – | – | – | – | – | – | small accumulation | much more pronounced increase | decrease | did not result in death | Five times more | exacerbation | three out of seven |
